# Results reported in patent US8741911B2, “Raf inhibitor compounds” (Eli Lilly and Company, priority 2012, dated 2014).
# Like-named read-outs stand apart in the source and are kept apart here.
# Experiments:
# [1] = tested on: COLO-829; experiment: CellTiter-Glo proliferation and viability assay; assay type: cell-based; settings: Homo sapiens
# [2] = tested on: HT-29 cells; experiment: CellTiter-Blue HT-29 cell proliferation assay; assay type: cell-based; settings: Homo sapiens; HT-29, CellTiter-Blue; read-out: Cell Proliferation Inhibition IC50
# Method: HT-29 cells (catalog #HTB-38) are obtained from the American Type Culture Collection (ATCC, Manassas, Va.). Briefly, cells are grown in McCoy's 5A supplemented with 10% characterized fetal bovine serum (Invitrogen, Carlsbad, Calif.), and 1% Penicillin/Streptomycin/L-Glutamine at 37 degrees Celsius, 5% CO2, and 95% humidity. Cells are allowed to expand until reaching 75-90% confluency at which point they are subcultured or harvested for assay use. A serial dilution of test compound is dispensed into a 384-well black clear bottom plate in triplicate. One thousand two-hundred fifty cells are added per well in 50 μL complete growth medium in the 384-well plate. Plates are incubated for 67 hours at 37 degrees Celsius, 5% CO2, and 95% humidity. At the end of the incubation period, 10 μL of a 440 μM solution of resazurin (Sigma, St. Louis, Mo.) in PBS is added to each well of the plate and plates are incubated for an additional 5 hours at 37 degrees Celsius, 5% CO2, and 95% humidity. Plates are read on a Synergy2 reader (Biotek, Winooski, Vt.) using an excitation of 540 nm and an emission of 600 nm. Data is analyzed using Prism software (Graphpad, San Diego, Calif.) to calculate IC50 values.
# The A375, HT-29, and Colo-205 cells (ATCC) harbor a V600E mutation.
# [3] = tested on: MDA-MB-436; experiment: CellTiter-Glo proliferation and viability assay; assay type: cell-based; settings: Homo sapiens
# [4] = tested on: NCI-H1573; experiment: CellTiter-Glo proliferation and viability assay; assay type: cell-based; settings: Homo sapiens
# [5] = tested on: Hs746T; experiment: CellTiter-Glo proliferation and viability assay; assay type: cell-based; settings: Homo sapiens
# [6] = tested on: LN 18; experiment: CellTiter-Glo proliferation and viability assay; assay type: cell-based; settings: Homo sapiens
# [7] = tested on: Calu-6; experiment: CellTiter-Glo proliferation and viability assay; assay type: cell-based; settings: Homo sapiens
# [8] = tested on: SK-Mel-28; experiment: CellTiter-Glo proliferation and viability assay; assay type: cell-based; settings: Homo sapiens
# [9] = tested on: RKO; experiment: CellTiter-Glo proliferation and viability assay; assay type: cell-based; settings: Homo sapiens
# [10] = tested on: phospho-MEK and phospho-ERK in A375 xenograft; experiment: A375 xenograft single dose pharmacodynamic study; assay type: in vivo, rat; settings: two hours post dose, Western Blot
# Method: Briefly, 10×10^6 cells (A375) or 5×10^6 cells (HCT-116) in a 1:1 medium and matrigel mix (0.2 mL total volume) are implanted by subcutaneous injection in the hind leg of nude female rats (NIH model No. NIHRNU-M from Taconic). A total of 8 rats in each group are used for the efficacy study, and a total of 3-4 rats in each group are used for a pharmacodynamic study. The Eli Lilly and Company Animal Care and Use Committee approved all the experimental protocols. […] Tumor growth and body weight are monitored over time to evaluate activity and signs of toxicity. Bidimensional measurements of tumors are performed twice a week and tumor volumes are calculated based on mid-axis length and mid-axis width. Tumor volume data are transformed to a log scale to equalize variance across time and treatment groups. The log volume data are analyzed with a two-way repeated measures analysis of variance by time and treatment using the MIXED® procedures in SAS® software (version 8.2). The correlation model for the repeated measures is spatial power. Treated groups are compared to the control group at each time point. The MIXED® procedure is also used separately for each treatment group to calculate adjusted means and standard errors at each time point. […]
# [11] = Solubility; assay type: physicochemical
# [12] = tested on: Hep3B2.1-7; experiment: CellTiter-Glo proliferation and viability assay; assay type: cell-based; settings: Homo sapiens
# [13] = tested on: SK-MeI-2 cells harboring N-Ras mutation Q61R, and B-Raf wild type; experiment: CellTiter-Glo proliferation and viability assay; assay type: cell-based; settings: Homo sapiens; SK-MeI-2, CellTiter-Glo; read-out: cell proliferation and viability IC50
# [14] = tested on: H9; experiment: CellTiter-Glo proliferation and viability assay; assay type: cell-based; settings: Homo sapiens
# [15] = tested on: HCT-116; experiment: CellTiter-Glo proliferation and viability assay; settings: Homo sapiens
# [16] = tested on: SK-OV-3; experiment: CellTiter-Glo proliferation and viability assay; assay type: cell-based; settings: Homo sapiens
# [17] = tested on: SNU-449; experiment: CellTiter-Glo proliferation and viability assay; assay type: cell-based; settings: Homo sapiens
# [18] = tested on: AGS; experiment: CellTiter-Glo proliferation and viability assay; assay type: cell-based; settings: Homo sapiens
# [19] = tested on: AsPC-1; experiment: CellTiter-Glo proliferation and viability assay; assay type: cell-based; settings: Homo sapiens
structure (smiles),measurement,setting,value
"CNc1ncc2cc(-c3cc(NC(=O)NCCC(C)(C)C)c(F)cc3C)c(C)nc2n1 [Example 1, 1-(3,3-Dimethylbutyl)-3-(2-fluoro-4-methyl-5-(7-methyl-2-(methylamino)pyrido[2,3-d]pyrimidin-6-yl)phenyl)urea]",IC50,[1]; read-out: Abs IC50,0.05 nM
same,IC50,[1]; read-out: Rel IC50,0.04 nM
same,IC50,[2],7 nM
same,IC50,[3]; read-out: Abs IC50,> 20 nM
same,IC50,[3]; read-out: Rel IC50,0.26 nM
same,IC50,[4]; read-out: Abs IC50,> 20 nM
same,IC50,[4]; read-out: Rel IC50,0.99 nM
same,IC50,[5]; read-out: Abs IC50,0.98 nM
same,IC50,[5]; read-out: Rel IC50,0.76 nM
same,IC50,[6]; read-out: Abs IC50,> 20 nM
same,IC50,[6]; read-out: Rel IC50,> 20 nM
same,IC50,[7]; read-out: Abs IC50,0.24 nM
same,IC50,[7]; read-out: Rel IC50,0.22 nM
same,IC50,"[8]; SK-MEL-28, read-out: Abs IC50",0.04 nM
same,IC50,"[8]; SK-MEL-28, read-out: Rel IC50",0.03 nM
same,IC50,"[8]; SK-Mel-28, B-Raf V600E, melanoma, CellTiter-Glo, read-out: IC50",29 nM
same,IC50,[9]; read-out: Abs IC50,4.92 nM
same,IC50,[9]; read-out: Rel IC50,0.26 nM
same,"phospho-MEK and phospho-ERK activities, PD effect",[10]; single dose 25 mg/kg,almost completely eliminated
same,"phospho-MEK and phospho-ERK, PD effect",[10]; single dose 3.125 to 50 mg/kg,inhibition was observed in all dose groups
same,solubility,[11],poor
same,IC50,[12]; read-out: Abs IC50,0.8 nM
same,IC50,[12]; read-out: Rel IC50,0.36 nM
same,IC50,[13],188 nM
same,IC50,[14]; read-out: Abs IC50,0.33 nM
same,IC50,[14]; read-out: Rel IC50,0.19 nM
same,IC50,"[15]; HCT-116, read-out: Abs IC50",0.72 nM
same,IC50,"[15]; HCT-116, read-out: proliferation and viability IC50",178 nM
same,IC50,[16]; read-out: Abs IC50,> 20 nM
same,IC50,[16]; read-out: Rel IC50,10.8 nM
same,IC50,[17]; read-out: Abs IC50,1.87 nM
same,IC50,[17]; read-out: Rel IC50,2.01 nM
same,IC50,[18]; read-out: Abs IC50,1.14 nM
same,IC50,[18]; read-out: Rel IC50,0.34 nM
same,IC50,"[19]; ASPC1, read-out: Abs IC50",1.22 nM
same,IC50,"[19]; ASPC1, read-out: Rel IC50",0.38 nM
